This passage reports melting point results from patent US20080319078A1, “Triphenylethylene Compounds Useful as Selective Estrogen Receptor Modulators” (priority 2005, published 2008).

For `CCC(=C(c1ccc(O)cc1)c1ccc(O)cc1)c1ccc(OCC(=O)O)c(OC)c1` [Example 4, {[4-[1-Ethyl-2,2-bis(4-hydroxyphenyl)ethenyl]-2-(methyloxy)phenyl]oxy}acetic acid], the melting point (commonly the temperature, or range, at which the solid turns liquid) lay in the range of 253 to 254 °C.
